For 18 compounds, MIC results are on record in patent publication US11279735B2, “Cyclic peptide antibiotics” (priority 2017, dated 2022).

Molecules are shown by their SMILES. Converted amounts (≈) assume the structure as drawn. *1 amine or outer side, *2 acyl side, *3 side chain or, on linkers, in order; H or OH if unused. Where a SMILES comes first, the peptide text is derived from it. [ ]: non-standard residue; d: D form. The star is where a group is joined. X17 = CCCCCC[C@@H](O[C@H](C)CN[*:1])[C@@H](C)C(=O)[*:2]; X2 = CCCCCC[C@@H](OC[C@@H](C)N[*:1])[C@@H](C)C(=O)[*:2]; aThr = C[C@H](O)[C@H](N)C(=O)O; NMeL = CN[C@@H](CC(C)C)C(=O)O; Chg = N[C@H](C(=O)O)C1CCCCC1; NMeNva = CCC[C@H](NC)C(=O)O; Dap = NC[C@H](N)C(=O)O; Propyl(3-NH2) = NCCC*; Ethyl(2-NH2) = NCC*; X15 = OC[C@@H](O)C*

This experiment has as its system Escherichia coli (E. coli) strain CFT073 ATCC 700928. The experiment is classed as cell-based. The note with it: ATCC 700928, 22 h. The method, boiled down:
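MICs were read after 22 h at 35 °C, with bacteria added to a final OD600 of 0.0005. Compounds were serially diluted 2-fold over ten concentrations from a top of 64, 4, 0.5 or 0.13 μg/mL (protocols 1–4). Medium was cation-adjusted Mueller Hinton II broth plus 0.002% Tween-80, following CLSI M07-A8.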

On to `CCCCCC[C@H]1OC(=O)CNC(=O)[C@H]([C@H](C)O)NC(=O)[C@H](CN)NC(=O)[C@H](C2CCCCC2)NC(=O)[C@H](CC(C)C)N(C)C(=O)[C@@H]1Cc1ccc(OC)cc1` [Example 123, (6S,9S,12S,15S,18R,19R)-9-(aminomethyl)-12-cyclohexyl-19-hexyl-6-[(1S)-1-hydroxyethyl]-15-isobutyl-18-[(4-methoxyphenyl)methyl]-16-methyl-1-oxa-4,7,10,13,16-pentazacyclononadecane-2,5,8,11,14,17-hexone], for which the minimum inhibitory concentration (MIC) turned out to be 12 µM (≈ 9.44 µg/mL).

Regarding `CCCCCC[C@H]1OC(=O)CNC(=O)[C@H](CNC(C)=O)NC(=O)[C@H](CN)NC(=O)[C@H](C2CCCCC2)NC(=O)[C@H](CC(C)C)N(C)C(=O)[C@@H]1C` [Example 124, N-[[(6S,9S,12S,15S,18R,19R)-9-(aminomethyl)-12-cyclohexyl-19-hexyl-15-isobutyl-16,18-dimethyl-2,5,8,11,14,17-hexaoxo-1-oxa-4,7,10,13,16-pentazacyclononadec-6-yl]methyl]acetamide], the minimum inhibitory concentration (MIC) was found to be 18 µM (≈ 12.7 µg/mL).

As for `CCCCCC[C@H]1OC(=O)CNC(=O)[C@H]([C@H](C)O)NC(=O)[C@H]([C@H](C)N)NC(=O)[C@H](C2CCCCC2)NC(=O)[C@H](CC(C)C)N(C)C(=O)[C@@H]1C` [Example 125, (6S,9S,12S,15S,18R,19R)-12-cyclohexyl-19-hexyl-15-isobutyl-16,18-dimethyl-9-[(1S)-1-aminoethyl]-6-[(1S)-1-hydroxyetltyl]-1-oxa-4,7,10,13,16-pentazacyclononadecane-2,5,8,11,14,17-hexone], the MIC worked out at 3.2 µM (≈ 2.22 µg/mL).

`CCCCCC(C)[C@H]1OC(=O)CNC(=O)[C@H]([C@H](C)O)NC(=O)[C@H](CN)NC(=O)[C@H](C2CCCCC2)NC(=O)[C@H](CC(C)C)N(C)C(=O)[C@@H]1C` (stereo partly drawn) [Example 126, (6S,9S,12S,15S,18R,19R)-9-(aminomethyl)-12-cyclohexyl-15-isobutyl-16,18-dimethyl-19-(1-methylhexyl)-6-[(1S)-1-hydroxyethyl]-1-oxa-4,7,10,13,16-pentazacyclononadecane-2,5,8,11,14,17-hexone] came in with an MIC of 3.1 µM (≈ 2.15 µg/mL).

Turning to `CCCCCC[C@H]1OC[C@@H](C)NC(=O)[C@H]([C@H](C)O)NC(=O)[C@H](CN)NC(=O)[C@H](C2CCCCC2)NC(=O)[C@H](CCC)N(C)C(=O)[C@@H]1C` [Example 127, (3R,6S,9S,12S,15S,18R,19R)-9-(aminomethyl)-12-cyclohexyl-19-hexyl-3,16,18-trimethyl-15-propyl-6-[(1S)-1-hydroxyethyl]-1-oxa-4,7,10,13,16-pentazacyclononadecane-5,8,11,14,17-pentone] (cyclo([Chg][Dap][aThr][X2][NMeNva])), the MIC came out at 4.4 µM (≈ 2.93 µg/mL).

For `CCCCCC[C@H]1OC[C@@H](C)NC(=O)[C@H](COC)NC(=O)[C@H](CN)NC(=O)[C@H](C2CCCCC2)NC(=O)[C@H](CC(C)C)N(C)C(=O)[C@@H]1C` [Example 128, (3R,6S,9S,12S,15S,18R,19R)-9-(aminomethyl)-12-cyclohexyl-19-hexyl-15-isobutyl-6-(methoxymethyl)-3,16,18-trimethyl-1-oxa-4,7,10,13,16-pentazacyclononadecane-5,8,11,14,17-pentone] (cyclo([Chg][Dap]S(Me)[X2][NMeL])), the MIC amounted to 3.1 µM (≈ 2.11 µg/mL).

As for `CCC[C@H]1C(=O)N[C@@H](C2CCCCCC2)C(=O)N[C@@H](CN)C(=O)N[C@@H]([C@H](C)O)C(=O)NCC(=O)O[C@H](CCC2CC3CCC2C3)[C@@H](C)C(=O)N1C` (stereo partly drawn) [Example 129, (6S,9S,12S,15S,18R,19R)-9-(aminomethyl)-12-cycloheptyl-16,18-dimethyl-19-(2-norbornan-2-ylethyl)-15-propyl-6-[(1S)-1-hydroxyethyl]-1-oxa-4,7,10,13,16-pentazacyclononadecane-2,5,8,11,14,17-hexone], the MIC is 0.66 µM (≈ 0.474 µg/mL).

Take `CCCCCC[C@H]1OC[C@@H](C)NC(=O)[C@H](COCCCN)NC(=O)[C@H](CO)NC(=O)[C@H](C2CCCCC2)NC(=O)[C@H](CCC)N(C)C(=O)[C@@H]1C` [Example 130, (3R,6S,9S,12S,15S,18R,19R)-6-(3-aminopropoxymethyl)-12-cyclohexyl-19-hexyl-9-(hydroxymethyl)-3,16,18-trimethyl-15-propyl-1-oxa-4,7,10,13,16-pentazacyclononadecane-5,8,11,14,17-pentone] (cyclo([Chg]SS(Propyl(3-NH2))[X2][NMeNva])): the MIC was determined as 44 µM (≈ 31.3 µg/mL).

The compound `CCCCCC[C@H]1OC[C@@H](C)NC(=O)[C@H](COCCCN)NC(=O)[C@H](CN)NC(=O)[C@H](C2CCCCC2)NC(=O)[C@H](CC(C)C)N(C)C(=O)[C@@H]1C` [Example 131, (3R,6S,9S,12S,15S,18R,19R)-9-(aminomethyl)-6-(3-aminopropoxymethyl)-12-cyclohexyl-19-hexyl-15-isobutyl-3,16,18-trimethyl-1-oxa-4,7,10,13,16-pentazacyclononadecane-5,8,11,14,17-pentone] (cyclo([Chg][Dap]S(Propyl(3-NH2))[X2][NMeL])) returned an MIC of 11 µM (≈ 7.96 µg/mL).

With `CCCCCC[C@H]1OC(=O)CNC(=O)[C@H]([C@H](C)O)NC(=O)[C@H](CO)NC(=O)[C@H](C2CCCCC2)NC(=O)[C@H](CCC)N(C)C(=O)[C@@H]1C` [Example 132, (6S,9S,12S,15S,18R,19R)-12-cyclohexyl-19-hexyl-9-(hydroxymethyl)-16,18-dimethyl-15-propyl-6-[(1S)-1-hydroxyethyl]-1-oxa-4,7,10,13,16-pentazacyclononadecane-2,5,8,11,14,17-hexone], the minimal inhibitory concentration (MIC) is 6.1 µM (≈ 4.07 µg/mL).

Compound `CCCCCC[C@H]1OC(=O)CNC(=O)[C@H](COCCCN)NC(=O)[C@H](CN)NC(=O)[C@H](C2CCCCCC2)NC(=O)[C@H](CCC)N(C)C(=O)[C@@H]1C` [Example 133, (6S,9S,12S,15S,18R,19R)-9-(aminomethyl)-6-(3-aminopropoxymethyl)-12-cycloheptyl-19-hexyl-16,18-dimethyl-15-propyl-1-oxa-4,7,10,13,16-pentazacyclononadecane-2,5,8,11,14,17-hexone] gave a minimal inhibitory concentration (MIC) of 3.1 µM (≈ 2.24 µg/mL).

In the case of `CCC[C@H]1C(=O)N[C@@H](C2CCCCCC2)C(=O)N[C@@H](CN)C(=O)N[C@@H]([C@H](C)O)C(=O)NCC(=O)O[C@H](CC2CC3CCC2C3)[C@@H](C)C(=O)N1C` (stereo partly drawn) [Example 134, (6S,9S,12S,15S,18R,19R)-9-(aminomethyl)-12-cycloheptyl-16,18-dimethyl-19-(norbornan-2-ylmethyl)-15-propyl-6-[(1S)-1-hydroxyethyl]-1-oxa-4,7,10,13,16-pentazacyclononadecane-2,5,8,11,14,17-hexone], the MIC was 0.78 µM (≈ 0.55 µg/mL).

The compound `CCCCCC[C@H]1OC(=O)CNC(=O)[C@H]([C@H](C)O)NC(=O)[C@H](CN)NC(=O)[C@H](C2CCCCC2)NC(=O)[C@H](CC(C)C)N(C)C(=O)[C@@H]1CC1CCCCC1` [Example 135, (6S,9S,12S,15S,18R,19R)-9-(aminomethyl)-12-cyclohexyl-18-(cyclohexylmethyl)-19-hexyl-15-isobutyl-16-methyl-6-[(1S)-1-hydroxyethyl]-1-oxa-4,7,10,13,16-pentazacyclononadecane-2,5,8,11,14,17-hexone] registered an MIC of 3.7 µM (≈ 2.82 µg/mL).

On to `CCCCCC[C@H]1OC[C@@H](C)NC(=O)[C@H](COC[C@H](O)CO)NC(=O)[C@H](CN)NC(=O)[C@H](C2CCCCC2)NC(=O)[C@H](CC(C)C)N(C)C(=O)[C@@H]1C` [Example 136, (3R,6S,9S,12S,15S,18R,19R)-9-(aminomethyl)-12-cyclohexyl-19-hexyl-15-isobutyl-3,16,18-trimethyl-6-[[(2R)-2,3-dihydroxypropoxy]methyl]-1-oxa-4,7,10,13,16-pentazacyclononadecane-5,8,11,14,17-pentone] (cyclo([Chg][Dap]S(X15)[X2][NMeL])), for which the MIC turned out to be 8.8 µM (≈ 6.52 µg/mL).

In the case of `CCC[C@H]1C(=O)N[C@@H](C2CCCCCC2)C(=O)N[C@@H](CN)C(=O)N[C@@H](CO[C@H]2C[C@H](N)C2)C(=O)NCC(=O)O[C@H](CCC2CC3CCC2C3)[C@@H](C)C(=O)N1C` (stereo partly drawn) [Example 137, (6S,9S,12S,15S,18R,19R)-6-[(3-aminocyclobutoxy)methyl]-9-(aminomethyl)-12-cycloheptyl-16,18-dimethyl-19-(2-norbornan-2-ylethyl)-15-propyl-1-oxa-4,7,10,13,16-pentazacyclononadecane-2,5,8,11,14,17-hexone], the MIC worked out at 0.78 µM (≈ 0.604 µg/mL).

With `CCCCCC[C@H]1OC[C@@H](C)NC(=O)[C@H](COCCN)NC(=O)[C@H](CN)NC(=O)[C@H](C2CCCCC2)NC(=O)[C@H](CC(C)C)N(C)C(=O)[C@@H]1C` [Example 138, (3R,6S,9S,12S,15S,18R,19R)-6-(2-aminoethoxymethyl)-9-(aminomethyl)-12-cyclohexyl-19-hexyl-15-isobutx1-3,16,18-trimethyl-1-oxa-4,7,10,13,16-pentazacyclononadecane-5,8,11,14,17-pentone] (cyclo([Chg][Dap]S(Ethyl(2-NH2))[X2][NMeL])), the MIC came out at 12 µM (≈ 8.52 µg/mL).

For `CCCCCC[C@H]1OC(=O)CNC(=O)[C@H](CNC(=O)CN)NC(=O)[C@H](CN)NC(=O)[C@H](C2CCCCC2)NC(=O)[C@H](CC(C)C)N(C)C(=O)[C@@H]1C` [Example 139, 2-amino-N-[[(6S,9S,12S,15S,18R,19R)-9-(aminomethyl)-12-cyclohexyl-19-hexyl-15-isobutyl-16,18-dimethyl-2,5,8,11,14,17-hexaoxo-1-oxa-4,7,10,13,16-pentazacyclononadec-6-yl]methyl]acetamide], the MIC is 18 µM (≈ 13 µg/mL).

For the compound `CCCCCC[C@H]1O[C@H](C)CNC(=O)[C@H]([C@H](C)O)NC(=O)[C@H](CN)NC(=O)[C@H](C2CCCCC2)NC(=O)[C@H](CC(C)C)N(C)C(=O)[C@@H]1C` [Example 140, (2R,6S,9S,12S,15S,18R,19R)-9-(aminomethyl)-12-cyclohexyl-19-hexyl-15-isobutyl-2,16,18-trimethyl-6-[(1S)-1-hydroxyethyl]-1-oxa-4,7,10,13,16-pentazacyclononadecane-5,8,11,14,17-pentone] (cyclo([Chg][Dap][aThr][X17][NMeL])), the minimal inhibitory concentration (MIC) was found to be 35 µM (≈ 23.8 µg/mL).

The term MIC denotes the least concentration at which growth counts as inhibited. A high value points to a less susceptible organism.
